Experimental findings from paper PMC12206033, “Selective inhibition of TRPV3 channel by natural rosmarinic acid and its analogs for alleviation of skin lesions through downregulation of NF-κB pathway” (The Journal of Biological Chemistry, 2025) are described below.

Residue numbers refer to the chain shown, from its start.

Common to all, as to assay type: cell-based
The target in one assay is T1, hTRPM8 (Homo sapiens, UniProt Q7Z2W7).
T1 construct: expressed in transfected cells; host or cells: HEK293T
Kind of assay: whole-cell patch-clamp of hTRPM8 currents activated by menthol. The following applies: ROSA 50 μM; agonist menthol 30 μM (legend: 500 μM). As to the method: (§1) HEK293T cell line was obtained from the Cell Resource Center, Peking Union Medical College. HEK293T cells were maintained in Dulbecco’s modified Eagle’s medium (DMEM, Gibco) supplemented with 10% fetal bovine serum at 37 °C with 5% CO2. […] The next day, determine the plasmid transfection status by observing green fluorescence based on expression of enhanced GFP as an indicator. […] When conducting experiments on HEK293T cells transfected with G573S point mutant TRPV3 plasmid, we replaced culture medium with or without compounds after 4 h of transfection and then observed green fluorescence of HEK293T cell after 10 h. As for the relative fluorescence intensity, we convert the image to 8 bit grayscale using ImageJ (Https://imagej.net/software/fiji/downloads) and set an appropriate threshold value to reduce background noise and enhance the image contrast.
(§2) All patch-clamp recordings were conducted 16 to 24 h after transfection using an EPC10 amplifier powered by PatchMaster software (HEKA) (https://www.heka.com/downloads/downloads_main.html#down_patchmaster) at room temperature. […] Currents were recorded at a potential ramp from −100 mV to +100 mV for 1000 ms with 1000-ms intervals (for whole-cell recordings) or a persistent potential of −60 mV (inside-out patch recordings). […]

The next assay addresses T2, hTRPA1 (Homo sapiens, UniProt O75762).
T2 construct: expressed in transfected cells; host or cells: HEK293T
Description: whole-cell patch-clamp of hTRPA1 currents activated by allyl isothiocyanate. The note with it: ROSA 50 μM; agonist allyl isothiocyanate 300 μM; read-out: inhibition of TRPA1 currents. As to the method:
as §1, §2
A general note: In patch-clamp work, channel activity is measured electrically.

The target in assay [1] is T3, TRPV3 T636A (Homo sapiens, UniProt Q8NET8, T636A).
T3 construct: expressed in transfected cells; host or cells: HEK293T
T3 sequence (Q8NET8 1-790 T636A): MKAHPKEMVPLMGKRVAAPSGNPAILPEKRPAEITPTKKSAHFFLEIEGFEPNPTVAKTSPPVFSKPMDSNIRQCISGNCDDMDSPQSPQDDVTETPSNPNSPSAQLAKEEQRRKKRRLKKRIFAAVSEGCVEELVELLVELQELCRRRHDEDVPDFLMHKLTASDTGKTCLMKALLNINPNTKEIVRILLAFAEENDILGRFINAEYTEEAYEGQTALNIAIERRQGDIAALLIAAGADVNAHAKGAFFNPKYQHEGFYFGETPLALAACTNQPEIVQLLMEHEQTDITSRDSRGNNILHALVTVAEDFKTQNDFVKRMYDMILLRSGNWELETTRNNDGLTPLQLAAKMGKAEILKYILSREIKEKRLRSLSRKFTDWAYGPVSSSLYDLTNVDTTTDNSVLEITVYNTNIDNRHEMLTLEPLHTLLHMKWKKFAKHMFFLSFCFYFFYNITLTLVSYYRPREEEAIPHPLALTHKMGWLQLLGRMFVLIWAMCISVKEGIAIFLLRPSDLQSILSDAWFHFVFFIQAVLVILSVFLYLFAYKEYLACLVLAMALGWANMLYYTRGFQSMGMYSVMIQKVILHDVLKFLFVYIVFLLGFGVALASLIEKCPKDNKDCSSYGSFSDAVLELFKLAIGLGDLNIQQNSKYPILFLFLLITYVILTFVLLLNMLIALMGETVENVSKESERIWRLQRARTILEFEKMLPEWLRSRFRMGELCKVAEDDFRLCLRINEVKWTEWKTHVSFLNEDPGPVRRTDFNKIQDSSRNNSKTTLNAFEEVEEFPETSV
Kind of assay: single-channel inside-out patch recordings of TRPV3 T636A mutant. The note with it: ROSA 100 μM co-applied with 2-APB 50 μM; n = 4. As for the experimental part: as §1, §2

A further assay addresses T4, TRPV3 T665A (Homo sapiens, UniProt Q8NET8, T665A).
T4 construct: expressed in transfected cells; host or cells: HEK293T
T4 sequence (Q8NET8 1-790 T665A): T3 sequence (Q8NET8 1-790 T636A) with A636T, T665A
Kind of assay: whole-cell patch-clamp of hTRPV3 T665A mutant currents. The following applies: ROSA 100 μM; 2-APB; read-out: inhibition of macroscopic hTRPV3 T665A currents. As for the experimental part:
as §1, §2

Assay [2] has as its target T3, TRPV3 T636A. Description: whole-cell patch-clamp of hTRPV3 T636A mutant currents. The following applies: ROSA 100 μM; 2-APB; read-out: inhibition of macroscopic hTRPV3 T636A currents. As for the experimental part:
as §1, §2

T2 sequence (O75762 whole entry): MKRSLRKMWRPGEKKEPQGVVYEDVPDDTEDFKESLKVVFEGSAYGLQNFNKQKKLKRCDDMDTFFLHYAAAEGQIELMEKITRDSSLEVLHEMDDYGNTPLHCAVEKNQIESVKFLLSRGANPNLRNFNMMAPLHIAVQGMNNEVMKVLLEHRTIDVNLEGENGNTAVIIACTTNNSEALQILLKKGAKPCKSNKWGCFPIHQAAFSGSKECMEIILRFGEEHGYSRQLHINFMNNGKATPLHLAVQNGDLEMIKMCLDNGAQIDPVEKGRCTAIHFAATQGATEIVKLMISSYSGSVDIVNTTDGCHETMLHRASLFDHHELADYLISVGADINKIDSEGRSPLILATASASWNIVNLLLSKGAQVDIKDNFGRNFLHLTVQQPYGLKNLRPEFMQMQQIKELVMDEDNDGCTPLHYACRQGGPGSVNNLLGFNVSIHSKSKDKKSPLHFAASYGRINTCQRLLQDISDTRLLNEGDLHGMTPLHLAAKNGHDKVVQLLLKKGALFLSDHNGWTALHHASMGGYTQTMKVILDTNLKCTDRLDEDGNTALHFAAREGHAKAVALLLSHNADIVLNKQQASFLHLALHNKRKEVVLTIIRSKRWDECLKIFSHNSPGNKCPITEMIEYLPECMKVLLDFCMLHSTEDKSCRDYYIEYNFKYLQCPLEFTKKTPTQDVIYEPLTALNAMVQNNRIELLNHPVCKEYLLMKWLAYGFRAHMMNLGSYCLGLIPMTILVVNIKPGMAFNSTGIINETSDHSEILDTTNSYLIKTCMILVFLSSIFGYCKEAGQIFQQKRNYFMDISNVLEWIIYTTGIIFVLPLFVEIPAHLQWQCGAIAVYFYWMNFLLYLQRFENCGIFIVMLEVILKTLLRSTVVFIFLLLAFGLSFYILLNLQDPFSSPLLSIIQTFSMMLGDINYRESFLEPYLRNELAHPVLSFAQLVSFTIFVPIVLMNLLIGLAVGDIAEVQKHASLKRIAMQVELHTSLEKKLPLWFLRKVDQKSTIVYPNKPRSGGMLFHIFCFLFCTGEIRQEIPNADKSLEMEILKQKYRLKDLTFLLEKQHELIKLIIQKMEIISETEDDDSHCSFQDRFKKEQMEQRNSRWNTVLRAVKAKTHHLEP
T1 sequence (Q7Z2W7 whole entry): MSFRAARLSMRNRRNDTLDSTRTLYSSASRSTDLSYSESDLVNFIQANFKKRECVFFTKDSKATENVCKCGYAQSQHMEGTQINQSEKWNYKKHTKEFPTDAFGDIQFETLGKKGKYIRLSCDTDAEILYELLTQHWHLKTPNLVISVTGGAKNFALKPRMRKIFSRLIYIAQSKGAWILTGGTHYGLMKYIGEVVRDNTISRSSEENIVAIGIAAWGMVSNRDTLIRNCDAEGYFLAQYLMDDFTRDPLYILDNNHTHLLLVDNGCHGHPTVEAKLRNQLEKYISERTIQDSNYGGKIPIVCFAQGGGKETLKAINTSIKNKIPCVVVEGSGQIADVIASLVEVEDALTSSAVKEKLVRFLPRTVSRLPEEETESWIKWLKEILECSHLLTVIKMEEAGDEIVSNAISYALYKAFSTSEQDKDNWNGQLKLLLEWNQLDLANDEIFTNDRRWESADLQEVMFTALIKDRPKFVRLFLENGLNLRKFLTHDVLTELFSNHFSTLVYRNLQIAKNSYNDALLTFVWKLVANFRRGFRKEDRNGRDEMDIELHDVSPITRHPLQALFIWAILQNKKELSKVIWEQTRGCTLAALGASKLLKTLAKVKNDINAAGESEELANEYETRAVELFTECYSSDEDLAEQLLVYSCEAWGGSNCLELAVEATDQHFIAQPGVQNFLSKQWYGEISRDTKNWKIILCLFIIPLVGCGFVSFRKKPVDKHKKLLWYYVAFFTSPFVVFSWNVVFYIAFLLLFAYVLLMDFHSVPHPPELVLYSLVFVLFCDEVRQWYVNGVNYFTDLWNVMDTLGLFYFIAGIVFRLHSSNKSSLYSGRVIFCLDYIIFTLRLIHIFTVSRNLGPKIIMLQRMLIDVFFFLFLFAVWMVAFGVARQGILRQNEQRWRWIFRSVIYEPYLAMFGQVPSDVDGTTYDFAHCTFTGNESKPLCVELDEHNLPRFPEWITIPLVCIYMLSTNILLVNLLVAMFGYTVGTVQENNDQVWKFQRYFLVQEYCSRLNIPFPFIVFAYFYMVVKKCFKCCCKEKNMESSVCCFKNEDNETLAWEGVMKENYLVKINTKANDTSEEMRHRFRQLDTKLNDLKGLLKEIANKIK

For orientation: inhibition means the drop in the measured response relative to a control, in per cent. For the compound `O=C(/C=C/c1ccc(O)c(O)c1)O[C@H](Cc1ccc(O)c(O)c1)C(=O)O` [ROSA, rosmarinic acid], the “inhibition of TRPM8 currents” value on hTRPM8 is listed as 0.7 ± 6.7%. Besides, the inhibition at 50 µM on hTRPA1 amounted to 4.5 ± 3.6%. The “single-channel open probability, T636A mutant” value at TRPV3 T636A [1] worked out at 0.67. Also, the results for the inhibition at 100 µM at TRPV3 T665A and on TRPV3 T636A [2] were 19.1% and 14.7%, respectively.
